Assay results taken from ChEMBL document CHEMBL3885861, “Open TG-GATES”.

Species: Rattus norvegicus
Test: Open TG-GATES - Regimen: Daily Repeat
Format: toxicity, organism-based, Sprague-Dawley
Set-up: regimen Daily Repeat, gender Male, age 6 weeks
Conditions: in vivo, po, route gavage; for APTT / Bas / Eos / Fbg / Hb / Ht / Lym / MCH / MCHC / MCV / Mono / Neu / PT / Plat / RBC / Ret / WBC: tissue Blood; for KIDNEY_L / KIDNEY_R / KIDNEY_TOTAL: tissue Kidney; for LIVER: tissue Liver; for A/G / ALP / ALT / AST / BUN / CRE / Ca / Cl / DBIL / GLC / IP / K / LDH / Na / PL / RALB / TBIL / TC / TG / TP / gamma-GTP: tissue Plasma
[1] = 300 mg/kg, 72 h, dose level Middle, time 3 day
[2] = 300 mg/kg, […], dose level Middle, time 7 day
[3] = 300 mg/kg, […], dose level Middle, time 14 day
[4] = 300 mg/kg, […], dose level Middle, time 28 day
[5] = 1000 mg/kg, 72 h, dose level High, time 3 day
[6] = 1000 mg/kg, […], dose level High, time 7 day
[7] = 1000 mg/kg, […], dose level High, time 14 day
[8] = 1000 mg/kg, […], dose level High, time 28 day

## CC(C)(S)[C@@H](N)C(=O)O [PENICILLAMINE]
[1]
  TERMINAL_BW: 235.2 g
  APTT: 17.2 s
  Bas: 0.4%
  Eos: 1%
  Fbg: 301.4 mg/dL
  Hb: 13.7 g/dL
  Ht: 42.2%
  Lym: 79.2%
  MCH: 20.9 pg
  MCHC: 32.6%
  MCV: 64.1 fL
  Mono: 3.2%
  Neu: 15.4%
  PT: 14.1 s
  Plat: 114.9 x10_4/uL
  RBC: 658.6 x10_4/ul
  Ret: 7.6%
  WBC: 91.9 x10_2/uL
  KIDNEY_L: 1 g
  KIDNEY_R: 1 g
  KIDNEY_TOTAL: 2 g
  LIVER: 11.1 g
  A/G: 0.9
  ALP: 1461.8 IU/L
  ALT: 40.4 IU/L
  AST: 66.2 IU/L
  BUN: 14.4 mg/dL
  CRE: 0.2 mg/dL
  Ca: 11 mg/dL
  Cl: 106.6 meq/L
  DBIL: 0.012 mg/dL
  GLC: 181.6 mg/dL
  IP: 7.2 mg/dL
  K: 4 meq/L
  LDH: 102 IU/L
  Na: 144.6 meq/L
  PL: 159.2 mg/dL
  RALB: 2.8 g/dL
  TBIL: 0.028 mg/dL
  TC: 81.2 mg/dL
  TG: 102.8 mg/dL
  TP: 5.8 g/dL
  gamma-GTP: 1 IU/L
[2]
  TERMINAL_BW: 273.3 g
  APTT: 16.6 s
  Bas: 0%
  Eos: 1.4%
  Fbg: 377.6 mg/dL
  Hb: 13.4 g/dL
  Ht: 40.7%
  Lym: 75.4%
  MCH: 20.6 pg
  MCHC: 33.1%
  MCV: 62.4 fL
  Mono: 3.6%
  Neu: 18.8%
  PT: 14 s
  Plat: 122.4 x10_4/uL
  RBC: 652.2 x10_4/ul
  Ret: 5.9%
  WBC: 96 x10_2/uL
  KIDNEY_L: 1.2 g
  KIDNEY_R: 1.1 g
  KIDNEY_TOTAL: 2.3 g
  LIVER: 12.2 g
  A/G: 0.9
  ALP: 1362.2 IU/L
  ALT: 38.6 IU/L
  AST: 61 IU/L
  BUN: 15.6 mg/dL
  CRE: 0.2 mg/dL
  Ca: 10.8 mg/dL
  Cl: 103.8 meq/L
  DBIL: 0.012 mg/dL
  GLC: 189.4 mg/dL
  IP: 7.2 mg/dL
  K: 4 meq/L
  LDH: 67.4 IU/L
  Na: 141.6 meq/L
  PL: 164.8 mg/dL
  RALB: 2.7 g/dL
  TBIL: 0.034 mg/dL
  TC: 85.4 mg/dL
  TG: 113.4 mg/dL
  TP: 5.7 g/dL
  gamma-GTP: 1 IU/L
[3]
  TERMINAL_BW: 321.5 g
  APTT: 23.3 s
  Bas: 0.2%
  Eos: 1%
  Fbg: 375.6 mg/dL
  Hb: 14.7 g/dL
  Ht: 43.5%
  Lym: 81.2%
  MCH: 20.2 pg
  MCHC: 33.8%
  MCV: 59.8 fL
  Mono: 2.2%
  Neu: 15.2%
  PT: 14.3 s
  Plat: 133 x10_4/uL
  RBC: 727 x10_4/ul
  Ret: 5.2%
  WBC: 103.7 x10_2/uL
  KIDNEY_L: 1.2 g
  KIDNEY_R: 1.3 g
  KIDNEY_TOTAL: 2.5 g
  LIVER: 13.6 g
  A/G: 0.9
  ALP: 1395 IU/L
  ALT: 41.8 IU/L
  AST: 64.2 IU/L
  BUN: 15.4 mg/dL
  CRE: 0.2 mg/dL
  Ca: 10.9 mg/dL
  Cl: 105 meq/L
  DBIL: 0.008 mg/dL
  GLC: 176.4 mg/dL
  IP: 7.2 mg/dL
  K: 3.9 meq/L
  LDH: 100.2 IU/L
  Na: 142.8 meq/L
  PL: 160.2 mg/dL
  RALB: 2.8 g/dL
  TBIL: 0.04 mg/dL
  TC: 80.4 mg/dL
  TG: 119.2 mg/dL
  TP: 6 g/dL
  gamma-GTP: 1 IU/L
[4]
  TERMINAL_BW: 390 g
  APTT: 17.4 s
  Bas: 0.4%
  Eos: 1.2%
  Fbg: 485.2 mg/dL
  Hb: 14.4 g/dL
  Ht: 42.7%
  Lym: 78%
  MCH: 18.7 pg
  MCHC: 33.8%
  MCV: 55.4 fL
  Mono: 2.6%
  Neu: 17.2%
  PT: 14.7 s
  Plat: 132.7 x10_4/uL
  RBC: 770 x10_4/ul
  Ret: 3.1%
  WBC: 131.5 x10_2/uL
  KIDNEY_L: 1.4 g
  KIDNEY_R: 1.4 g
  KIDNEY_TOTAL: 2.9 g
  LIVER: 15.6 g
  A/G: 0.9
  ALP: 911.4 IU/L
  ALT: 33.8 IU/L
  AST: 56.8 IU/L
  BUN: 14.8 mg/dL
  CRE: 0.2 mg/dL
  Ca: 10.8 mg/dL
  Cl: 105.6 meq/L
  DBIL: 0.008 mg/dL
  GLC: 186.8 mg/dL
  IP: 6.2 mg/dL
  K: 3.6 meq/L
  LDH: 60.6 IU/L
  Na: 144 meq/L
  PL: 147 mg/dL
  RALB: 2.8 g/dL
  TBIL: 0.072 mg/dL
  TC: 77 mg/dL
  TG: 87.8 mg/dL
  TP: 6.1 g/dL
  gamma-GTP: 1 IU/L
[5]
  TERMINAL_BW: 225.3 g
  APTT: 20.2 s
  Bas: 0%
  Eos: 1.2%
  Fbg: 286.4 mg/dL
  Hb: 13.2 g/dL
  Ht: 40.3%
  Lym: 78.6%
  MCH: 20.1 pg
  MCHC: 32.7%
  MCV: 61.6 fL
  Mono: 2.6%
  Neu: 16.8%
  PT: 14.4 s
  Plat: 121.8 x10_4/uL
  RBC: 657.4 x10_4/ul
  Ret: 6.2%
  WBC: 87.8 x10_2/uL
  KIDNEY_L: 1 g
  KIDNEY_R: 1 g
  KIDNEY_TOTAL: 2 g
  LIVER: 9.8 g
  A/G: 1
  ALP: 1073 IU/L
  ALT: 38 IU/L
  AST: 60.8 IU/L
  BUN: 13.2 mg/dL
  CRE: 0.2 mg/dL
  Ca: 10.7 mg/dL
  Cl: 105.8 meq/L
  DBIL: 0.012 mg/dL
  GLC: 166 mg/dL
  IP: 7.5 mg/dL
  K: 4.1 meq/L
  LDH: 94.2 IU/L
  Na: 144.2 meq/L
  PL: 143 mg/dL
  RALB: 2.8 g/dL
  TBIL: 0.038 mg/dL
  TC: 74.8 mg/dL
  TG: 50.4 mg/dL
  TP: 5.7 g/dL
  gamma-GTP: 0.8 IU/L
[6]
  TERMINAL_BW: 247.8 g
  APTT: 21.8 s
  Bas: 0%
  Eos: 1.4%
  Fbg: 452.4 mg/dL
  Hb: 13.2 g/dL
  Ht: 40.6%
  Lym: 79.2%
  MCH: 19.2 pg
  MCHC: 32.5%
  MCV: 59 fL
  Mono: 3%
  Neu: 15%
  PT: 14.6 s
  Plat: 131.3 x10_4/uL
  RBC: 687.8 x10_4/ul
  Ret: 4.6%
  WBC: 104.2 x10_2/uL
  KIDNEY_L: 1.1 g
  KIDNEY_R: 1.1 g
  KIDNEY_TOTAL: 2.1 g
  LIVER: 10.7 g
  A/G: 0.9
  ALP: 1010.8 IU/L
  ALT: 37 IU/L
  AST: 49.6 IU/L
  BUN: 15.2 mg/dL
  CRE: 0.2 mg/dL
  Ca: 10.8 mg/dL
  Cl: 104.4 meq/L
  DBIL: 0.016 mg/dL
  GLC: 169.2 mg/dL
  IP: 6.9 mg/dL
  K: 3.8 meq/L
  LDH: 72.4 IU/L
  Na: 142.4 meq/L
  PL: 156.4 mg/dL
  RALB: 2.8 g/dL
  TBIL: 0.066 mg/dL
  TC: 86.8 mg/dL
  TG: 59.2 mg/dL
  TP: 5.9 g/dL
  gamma-GTP: 1 IU/L
[7]
  TERMINAL_BW: 282 g
  APTT: 22.3 s
  Bas: 0%
  Eos: 1.2%
  Fbg: 520.8 mg/dL
  Hb: 13.1 g/dL
  Ht: 39.8%
  Lym: 82.6%
  MCH: 18.7 pg
  MCHC: 32.9%
  MCV: 56.8 fL
  Mono: 2.2%
  Neu: 13.2%
  PT: 15.3 s
  Plat: 164 x10_4/uL
  RBC: 701 x10_4/ul
  Ret: 4.9%
  WBC: 115.3 x10_2/uL
  KIDNEY_L: 1.2 g
  KIDNEY_R: 1.2 g
  KIDNEY_TOTAL: 2.3 g
  LIVER: 11.8 g
  A/G: 0.9
  ALP: 881.6 IU/L
  ALT: 37.2 IU/L
  AST: 52.4 IU/L
  BUN: 13 mg/dL
  CRE: 0.2 mg/dL
  Ca: 10.7 mg/dL
  Cl: 105.4 meq/L
  DBIL: 0.008 mg/dL
  GLC: 174.6 mg/dL
  IP: 6.7 mg/dL
  K: 3.8 meq/L
  LDH: 79.6 IU/L
  Na: 142.8 meq/L
  PL: 148.6 mg/dL
  RALB: 2.7 g/dL
  TBIL: 0.058 mg/dL
  TC: 81.6 mg/dL
  TG: 43.8 mg/dL
  TP: 5.8 g/dL
  gamma-GTP: 1 IU/L
[8]
  TERMINAL_BW: 342.2 g
  APTT: 17.8 s
  Bas: 0.4%
  Eos: 1.8%
  Fbg: 646.8 mg/dL
  Hb: 12.1 g/dL
  Ht: 37.3%
  Lym: 71.2%
  MCH: 16.1 pg
  MCHC: 32.4%
  MCV: 49.8 fL
  Mono: 4.2%
  Neu: 21.6%
  PT: 15.7 s
  Plat: 156.3 x10_4/uL
  RBC: 749.2 x10_4/ul
  Ret: 5.6%
  WBC: 153.3 x10_2/uL
  KIDNEY_L: 1.4 g
  KIDNEY_R: 1.4 g
  KIDNEY_TOTAL: 2.8 g
  LIVER: 14.6 g
  A/G: 0.8
  ALP: 458.6 IU/L
  ALT: 26.8 IU/L
  AST: 43.6 IU/L
  BUN: 14.2 mg/dL
  CRE: 0.2 mg/dL
  Ca: 10.5 mg/dL
  Cl: 105 meq/L
  DBIL: 0.02 mg/dL
  GLC: 162.4 mg/dL
  IP: 6.5 mg/dL
  K: 4 meq/L
  LDH: 70.4 IU/L
  Na: 144 meq/L
  PL: 137.6 mg/dL
  RALB: 2.7 g/dL
  TBIL: 0.1 mg/dL
  TC: 77.2 mg/dL
  TG: 45.4 mg/dL
  TP: 5.9 g/dL
  gamma-GTP: 1.6 IU/L
